# Patent publication US20230381223A1, “ORAL PYROPHOSPHATE FOR USE IN REDUCING CALCIFICATION” (PYROGENYX INC., priority 2020, published 2023)
# Key:
# Abcc6−/− mice = settings: female Abcc6−/− mice, oral, 10 mM in drinking water
# Experimental: Briefly, mice were kept under routine laboratory conditions with a 12-hour light-dark cycle and ad libitum access to water and chow. Anesthesia was carried out by intraperitoneal injection of the mixture of Zoletil (30 mg/kg, Virbac, France), Xylazine (12.5 mg/kg, Produlab Pharma, The Netherlands) and Butorphanol (3 mg/kg, Richterpharma, Austria) during all procedures.
# In this experiment calcification was induced in the myocardium and five days after we determined the Ca^2+-content of the heart.
# [1] = healthy volunteers, oral, gelatin capsules, 39 mg pyrophosphate/kg
# Experimental: To avoid the unpleasant taste we used capsulated PPi salts instead of water-based solution as the form of delivery. We tested two different capsules: gelatin and cellulose. Subsequently, we determined how PPi is absorbed in individuals affected by PXE compared to its absorption in non-PXE volunteers.
# Human studies were conducted in accordance with the Declaration of Helsinki. The oral uptake studies involving healthy human volunteers (female and male) were conducted and all patient samples were handled in an anonymized form. The oral uptake study involving PXE patients involved mutation analysis confirming the diagnosis in PXE patients. The diagnosis of PXE was based on characteristic skin findings, supported by characteristic histopathology, and ocular and vascular involvement.
# Gelatin capsules were obtained from Molar Chemicals (Halasztelek, Hungary), cellulose capsules were obtained from Capsuline (Davie, Fla.).
# Volunteers and PXE patients (after overnight fasting) were involved in the studies. The duration of ingestion was less than one minute. Blood samples were collected from the vena cubiti before ingestion (0 min) and after 30, 60, 120 and 240 min into CTAD anticoagulated tubes (BD, Franklin Lakes, N.J.), and filtered through Centrisart I 300,000 MWCO filters (Sartorius, Frankfurt, Germany). […]
smiles,measurement,setting,value
"O=P([O-])([O-])OP(=O)(O)O.[K+].[K+] [K2H2P2O7, Dipotassium Pyrophosphate]",calcification of the heart (total Ca2+-content) five days after cryo-injury,Abcc6−/− mice,reduce calcification to the same extent
"O=P([O-])([O-])OP(=O)(O)O.[Na+].[Na+] [Na2H2P2O7, disodium pyrophosphate, reference compound]",GI discomfort,[1],reduced to the minimum
same,calcification of the heart (total Ca2+-content) five days after cryo-injury,Abcc6−/− mice,reduce calcification to the same extent
